Test results from ChEMBL document CHEMBL4393717, “Development of novel human lactate dehydrogenase A inhibitors: High-throughput screening, synthesis, and biological evaluations” (Eur J Med Chem, 2019).
Active and inactive are the calls of the source. No cut-off for these calls is given here.

Tests used:
MIA PaCa-2 [1] = test: Induction of apoptosis in human MIAPaCa2 cells assessed as viable cells at 5 uM incubated for 12 hrs by annexin V and propidium iodide staining based flow cytometry analysis (reference value: 94.85 %); assay type: functional; conditions: MIA PaCa-2, 12 h, read-out: Activity
[2] = target: T1, L-lactate dehydrogenase A chain (Homo sapiens, UniProt P00338); test: Inhibition of LDHA in human MIAPaCa2 cells assessed as switch of pyruvate metabolism from lactate production to oxidative phosphorylation by measuring increase in oxygen consumption rate at 1 to 10 uM incubated for 4 hrs; assay type: cell-based
MIA PaCa-2 [3] = test: Induction of apoptosis in human MIAPaCa2 cells assessed as late apoptotic cells at 1 uM incubated for 12 hrs by annexin V and propidium iodide staining based flow cytometry analysis (reference value: 3.21 %); assay type: functional
MIA PaCa-2 [4] = test: Antitumor activity against human MIAPaCa2 cells xenografted in mouse assessed as reduction in tumor weight at 10 mg/kg administered once daily for 21 days measured twice a week; assay type: functional, organism-based
MIA PaCa-2 [5] = test: Cell cycle arrest in human MIAPaCa2 cells assessed as accumulation at S phase at 1 uM incubated for 24 hrs by propidium iodide staining based flow cytometry (reference value: 12.99%); assay type: functional
A549 = test: Antiproliferative activity against human A549 cells assessed as reduction in cell viability at incubated for 72 hrs by MTT assay; assay type: functional, cell-based; conditions: A549, 72 h
MIA PaCa-2 [6] = test: Cell cycle arrest in human MIAPaCa2 cells assessed as accumulation at S phase at 5 uM incubated for 24 hrs by propidium iodide staining based flow cytometry (reference value: 12.99%); assay type: functional
MIA PaCa-2 [7] = test: Induction of apoptosis in human MIAPaCa2 cells assessed as necrotic cells at 1 uM incubated for 12 hrs by annexin V and propidium iodide staining based flow cytometry analysis (reference value: 1.54 %); assay type: functional
MIA PaCa-2 [8] = test: Induction of apoptosis in human MIAPaCa2 cells assessed as early apoptotic cells at 1 uM incubated for 12 hrs by annexin V and propidium iodide staining based flow cytometry analysis (reference value: 0.40 %); assay type: functional
MIA PaCa-2 [9] = test: Induction of apoptosis in human MIAPaCa2 cells assessed as necrotic cells at 10 uM incubated for 12 hrs by annexin V and propidium iodide staining based flow cytometry analysis (reference value: 1.54 %); assay type: functional
[10] = target: T1, L-lactate dehydrogenase A chain; test: Inhibition of LDHA in human MIAPaCa2 cells assessed as switch of pyruvate metabolism from lactate production to oxidative phosphorylation by measuring decrease in extracellular acidification rate at 1 to 10 uM incubated for 4 hrs; assay type: cell-based
MIA PaCa-2 [11] = test: Cell cycle arrest in human MIAPaCa2 cells assessed as accumulation at G1 phase at 5 uM incubated for 24 hrs by propidium iodide staining based flow cytometry (reference value: 56.01%); assay type: functional
MIA PaCa-2 [12] = test: Inhibition of colony formation in human MIAPaCa2 cells at 1 uM treated for 3 days and supplemented with fresh medium with out compound every 3 days measured after 15 days by crystal violet staining based assay; assay type: functional
MIA PaCa-2 [13] = test: Cell cycle arrest in human MIAPaCa2 cells assessed as accumulation at G1 phase at 1 uM incubated for 24 hrs by propidium iodide staining based flow cytometry (reference value: 56.01%); assay type: functional
MIA PaCa-2 [14] = test: Antiproliferative activity against human MIAPaCa2 cells assessed as reduction in cell viability incubated for 72 hrs by MTT assay; assay type: functional, cell-based; conditions: MIA PaCa-2, 72 h
MIA PaCa-2 [15] = test: Induction of apoptosis in human MIAPaCa2 cells assessed as late apoptotic cells at 5 uM incubated for 12 hrs by annexin V and propidium iodide staining based flow cytometry analysis (reference value: 3.21 %); assay type: functional
MIA PaCa-2 [16] = test: Cell cycle arrest in human MIAPaCa2 cells assessed as accumulation at G1 phase at 10 uM incubated for 24 hrs by propidium iodide staining based flow cytometry (reference value: 56.01%); assay type: functional
MIA PaCa-2 [17] = test: Induction of apoptosis in human MIAPaCa2 cells assessed as viable cells at 1 uM incubated for 12 hrs by annexin V and propidium iodide staining based flow cytometry analysis (reference value: 94.85 %); assay type: functional; conditions: MIA PaCa-2, 12 h, read-out: Activity
MIA PaCa-2 [18] = test: Induction of apoptosis in human MIAPaCa2 cells assessed as viable cells at 10 uM incubated for 12 hrs by annexin V and propidium iodide staining based flow cytometry analysis (reference value: 94.85 %); assay type: functional; conditions: MIA PaCa-2, 12 h, read-out: Activity
MIA PaCa-2 [19] = test: Inhibition of colony formation in human MIAPaCa2 cells treated for 3 days and supplemented with fresh medium with out compound every 3 days measured after 15 days by crystal violet staining based assay; assay type: functional, cell-based
[20] = target: T1, L-lactate dehydrogenase A chain; test: Inhibition of recombinant human full-length N-terminal His-tagged LDHA (1 to 332 residues) expressed in Escherichia coli using sodium pyruvate as substrate incubated for 10 mins
MIA PaCa-2 [21] = test: Inhibition of colony formation in human MIAPaCa2 cells at 0.5 uM treated for 3 days and supplemented with fresh medium with out compound every 3 days measured after 15 days by crystal violet staining based assay; assay type: functional, cell-based
MIA PaCa-2 [22] = test: Cell cycle arrest in human MIAPaCa2 cells assessed as increase in accumulation at G2 phase incubated for 24 hrs by propidium iodide staining based flow cytometry; assay type: functional
MIA PaCa-2 [23] = test: Induction of apoptosis in human MIAPaCa2 cells assessed as early apoptotic cells at 10 uM incubated for 12 hrs by annexin V and propidium iodide staining based flow cytometry analysis (reference value: 0.40 %); assay type: functional
MIA PaCa-2 [24] = test: Induction of apoptosis in human MIAPaCa2 cells incubated for 12 hrs by Annexin V-FITC/propidium iodide staining based flow cytometry; assay type: functional, cell-based
MIA PaCa-2 [25] = test: Cell cycle arrest in human MIAPaCa2 cells assessed as accumulation at G2 phase at 1 uM incubated for 24 hrs by propidium iodide staining based flow cytometry (reference value: 31.00%); assay type: functional
MIA PaCa-2 [26] = test: Induction of apoptosis in human MIAPaCa2 cells assessed as early apoptotic cells at 5 uM incubated for 12 hrs by annexin V and propidium iodide staining based flow cytometry analysis (reference value: 0.40 %); assay type: functional
MIA PaCa-2 [27] = test: Cell cycle arrest in human MIAPaCa2 cells assessed as accumulation at G2 phase at 5 uM incubated for 24 hrs by propidium iodide staining based flow cytometry (reference value: 31.00%); assay type: functional
[28] = target: T1, L-lactate dehydrogenase A chain; test: Inhibition of LDHA in human MIAPaCa2 cells assessed as switch of pyruvate metabolism from lactate production to oxidative phosphorylation by measuring reduction in lactate formation at 1 to 10 uM incubated for 4 hrs; assay type: cell-based
MIA PaCa-2 [29] = test: Cell cycle arrest in human MIAPaCa2 cells assessed as accumulation at G2 phase at 10 uM incubated for 24 hrs by propidium iodide staining based flow cytometry (reference value: 31.00%); assay type: functional
MIA PaCa-2 [30] = test: Antitumor activity against human MIAPaCa2 cells xenografted in nude mouse assessed as reduction in tumor growth at 10 mg/kg administered once daily for 21 days measured twice a week; assay type: functional, organism-based
MIA PaCa-2 [31] = test: Induction of apoptosis in human MIAPaCa2 cells assessed as necrotic cells at 5 uM incubated for 12 hrs by annexin V and propidium iodide staining based flow cytometry analysis (reference value: 1.54 %); assay type: functional
[32] = Toxicity in nude mouse xenografted with human MIAPaCa2 cells assessed as reduction in body weight at 10 mg/kg administered once daily for 21 days measured twice a week; assay type: organism-based; conditions: in vivo, 504 h
MIA PaCa-2 [33] = test: Induction of apoptosis in human MIAPaCa2 cells assessed as late apoptotic cells at 10 uM incubated for 12 hrs by annexin V and propidium iodide staining based flow cytometry analysis (reference value: 3.21 %); assay type: functional
MIA PaCa-2 [34] = test: Cell cycle arrest in human MIAPaCa2 cells assessed as accumulation at S phase at 10 uM incubated for 24 hrs by propidium iodide staining based flow cytometry (reference value: 12.99%); assay type: functional

## O=C(c1ccco1)N1CCN(Cc2cc(=O)c(OCc3ccccc3F)co2)CC1
MIA PaCa-2 [1]
  viability at 5 µM: 66.6%
[2]
  inhibition: Active
MIA PaCa-2 [3]
  Activity: 5.79%
MIA PaCa-2 [4]
  Activity: Active
MIA PaCa-2 [5]
  Activity: 12.29%
A549
  IC50: 7.8 µM
MIA PaCa-2 [6]
  Activity: 13.37%
MIA PaCa-2 [7]
  Activity: 3.23%
MIA PaCa-2 [8]
  Activity: 1.14%
MIA PaCa-2 [9]
  Activity: 13.38%
[10]
  inhibition: Active
MIA PaCa-2 [11]
  Activity: 44.51%
MIA PaCa-2 [12]
  inhibition at 1 µM: 100%
MIA PaCa-2 [13]
  Activity: 49.19%
MIA PaCa-2 [14]
  IC50: 2.1 µM
MIA PaCa-2 [15]
  Activity: 19.86%
MIA PaCa-2 [16]
  Activity: 36.21%
MIA PaCa-2 [17]
  viability at 1 µM: 89.8%
MIA PaCa-2 [18]
  viability at 10 µM: 55.1%
MIA PaCa-2 [19]
  inhibition: Dose-dependent effect
[20]
  EC50: 0.09 µM
MIA PaCa-2 [21]
  inhibition: Active
MIA PaCa-2 [22]
  Activity: Dose-dependent effect
MIA PaCa-2 [23]
  Activity: 3.79%
MIA PaCa-2 [24]
  Activity: Dose-dependent effect
MIA PaCa-2 [25]
  Activity: 38.52%
MIA PaCa-2 [26]
  Activity: 3.47%
MIA PaCa-2 [27]
  Activity: 42.12%
[28]
  inhibition: Active
MIA PaCa-2 [29]
  Activity: 59.99%
MIA PaCa-2 [30]
  Activity: Active
MIA PaCa-2 [31]
  Activity: 10.1%
[32]
  Activity: Non-Toxic
MIA PaCa-2 [33]
  Activity: 27.68%
MIA PaCa-2 [34]
  Activity: 3.8%
